We go through 7 compounds from ChEMBL document CHEMBL1201862, “PubChem BioAssay data set” (2004).

Some test systems named below: SK-MEL-5; UACC-62; UO-31; HCT-15; LOX IMVI; T47D; COLO 205; 786-0; Hs-578T; IGROV-1; SK-MEL-2; CAKI-1; U-251; SF-295; SNB-75; NCI-H226; SF-539; BT-549; SW-620; KM12.
Holding throughout (test): growth of human tumour cells (NCI), 48 h

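In this assay, cells in 96-well plates receive the compound at five concentrations for 48 hours. Endpoints are linearly interpolated between the surrounding concentrations. GI50 is the concentration that inhibits growth by half.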 The source made the active and inactive calls. Cut-off read from the data, not from the text of the source: active = GI50 up to about 1.1 µM and inactive = higher. Where only a bound is given, the exact number is not on record here.

Consider `CN(C(=O)c1ccncc1)c1ccccc1`, for which the GI50 is > 100 µM (inactive) in the assay with SK-MEL-5; > 100 µM (inactive) in the assay with UACC-62; > 100 µM (inactive) in the assay on UO-31; above 100 µM in the assay with HCT-15; > 100 µM (inactive) in the assay on LOX IMVI; > 100 µM (inactive) in the assay on T47D. Also, the GI50 with COLO 205, in the assay on 786-0, in the assay with Hs-578T, in the assay with IGROV-1, in the assay with SK-MEL-2 and in the assay with CAKI-1 was > 100 µM (inactive) throughout. Also, the GI50 with U-251, in the assay on SF-295, in the assay on SNB-75, in the assay on NCI-H226, in the assay on SF-539 and in the assay on BT-549 was > 100 µM (inactive) in each case. In addition, the GI50 with SW-620 and in the assay with KM12 was > 100 µM (inactive) in each case.
For `CC(C)NC(=O)OCc1c(COC(=O)NC(C)C)c(-c2ccc[n+](COC(=O)Cc3ccccc3)c2)n2c1CCC2`, the GI50 in the assay with SK-MEL-5 is 33.4 µM (inactive); in the assay with UACC-62, 17 µM (inactive); with UO-31, 27.5 µM (inactive); in the assay with HCT-15, 55.5 µM; with LOX IMVI it was 24 µM (inactive); in the assay with T47D it was 28.7 µM (inactive). The GI50 with COLO 205 is 41.7 µM (inactive); in the assay with 786-0, 17.3 µM (inactive); in the assay on Hs-578T it was 48.1 µM (inactive); in the assay on IGROV-1, 75.3 µM (inactive); in the assay on SK-MEL-2 it was 28.1 µM (inactive); in the assay with CAKI-1, 9.48 µM (inactive). Further, the GI50 was 29.1 µM (inactive) in the assay with U-251; 35 µM (inactive) in the assay on SF-295; 24.3 µM (inactive) in the assay with SNB-75; 77.3 µM (inactive) in the assay with NCI-H226; 34.5 µM (inactive) with SF-539; 24.1 µM (inactive) in the assay with BT-549. Also, the GI50 in the assay on SW-620 was 22.5 µM (inactive); in the assay with KM12, > 100 µM (inactive).
Consider `CCO/C=N/NC(=O)CSc1nc2ccc(I)cc2c(=O)n1Cc1ccccc1`, for which the GI50 in the assay on SK-MEL-5 was > 100 µM (inactive); with UACC-62, 43.9 µM (inactive); in the assay with UO-31 it was > 100 µM (inactive); in the assay on HCT-15, above 100 µM; with LOX IMVI, 63.8 µM (inactive); in the assay with T47D it was 44.9 µM (inactive). Besides, the GI50 with COLO 205 was 57.4 µM (inactive); in the assay with 786-0, 56 µM (inactive); with Hs-578T, 34.6 µM (inactive); with IGROV-1, 39 µM (inactive); in the assay on SK-MEL-2, 21.7 µM (inactive); with CAKI-1, > 100 µM (inactive). Further, the GI50 was 35.9 µM (inactive) in the assay with U-251; 56.4 µM (inactive) in the assay on SF-295; 40.5 µM (inactive) in the assay with SNB-75; 64.4 µM (inactive) with NCI-H226; 53.8 µM (inactive) in the assay with SF-539; > 100 µM (inactive) in the assay on BT-549. In addition, the GI50 was 46.2 µM (inactive) in the assay with SW-620 and 46.9 µM (inactive) with KM12.
Regarding `COc1ccc(N2C(=O)C3c4[nH]c5ccc(OCc6ccccc6)cc5c4C4CCC(c5ccccc5)CC4C3C2=O)cc1` (stereo not given), the GI50 in the assay on SK-MEL-5 was 8.22 µM (inactive); in the assay on UACC-62, 6.95 µM (inactive); in the assay with UO-31, 53.6 µM (inactive); in the assay on HCT-15 it was 11.6 µM; in the assay on LOX IMVI, 15.2 µM (inactive); in the assay with T47D, 7.73 µM (inactive). Also, the GI50 in the assay on COLO 205 is 10.8 µM (inactive); in the assay on 786-0, 2.67 µM (inactive); with Hs-578T, 5.42 µM (inactive); in the assay on IGROV-1 it was 8.85 µM (inactive); with SK-MEL-2, 23.1 µM (inactive); with CAKI-1 it was 8.18 µM (inactive). For the same compound, the GI50 is 2.54 µM (inactive) in the assay with U-251; 11 µM (inactive) in the assay on SF-295; 7.82 µM (inactive) in the assay with SNB-75; 19.2 µM (inactive) in the assay on NCI-H226; 3.01 µM (inactive) with SF-539; 4.55 µM (inactive) in the assay on BT-549. Moreover, the GI50 in the assay on SW-620 was 2.02 µM (inactive); in the assay on KM12, 27 µM (inactive).
As to `C[N+]1(C)CCOC(O)(c2ccccc2)C1` (stereo not given), the GI50 with SK-MEL-5 is > 100 µM (inactive); in the assay on UACC-62, > 100 µM (inactive); in the assay on UO-31 it was > 100 µM (inactive); with HCT-15, above 100 µM; with LOX IMVI, > 100 µM (inactive); in the assay on T47D it was > 100 µM (inactive). The GI50 in the assay with COLO 205, in the assay on 786-0, in the assay on Hs-578T, with IGROV-1, in the assay on SK-MEL-2 and in the assay on CAKI-1 was > 100 µM (inactive) in each case. The GI50 in the assay with U-251, in the assay with SF-295, in the assay with SNB-75, in the assay on NCI-H226, in the assay with SF-539 and with BT-549 was > 100 µM (inactive) in each case. The GI50 in the assay on SW-620 and in the assay on KM12 was > 100 µM (inactive) in each case.
Consider `C[C@H]1CC[C@@]2(OC1)O[C@H]1C[C@H]3[C@@H]4CC[C@@H]5C[C@@H](OC6OC(CO)C(O)C(O)C6OC6OC(CO)C(O)C(O)C6O)CC[C@]5(C)[C@H]4CC[C@]3(C)[C@H]1[C@@H]2C` (stereo not given in full), for which the GI50 was 2.18 µM (inactive) in the assay on SK-MEL-5; 2.4 µM (inactive) with UACC-62; 1.99 µM (inactive) in the assay on UO-31; 1.99 µM with HCT-15; 1.99 µM (inactive) in the assay on LOX IMVI; 1.99 µM (inactive) in the assay on T47D. Moreover, the GI50 with COLO 205 was 1.9 µM (inactive); in the assay on 786-0, 2.01 µM (inactive); in the assay with Hs-578T it was 2.44 µM (inactive); in the assay with IGROV-1, 2.3 µM (inactive); in the assay with SK-MEL-2, 2.28 µM (inactive); in the assay with CAKI-1, 1.8 µM (inactive). The GI50 is 2.26 µM (inactive) in the assay on U-251; 2.22 µM (inactive) in the assay on SF-295; 2.24 µM (inactive) with SNB-75; 2.34 µM (inactive) in the assay with NCI-H226; 2.03 µM (inactive) in the assay on SF-539; 2.35 µM (inactive) in the assay on BT-549. For the same compound, the GI50 with SW-620 was 1.77 µM (inactive); in the assay on KM12 it was 2.6 µM (inactive).
Turning to `CC(C)(C)c1cc(OCc2nn3c(Cc4ccccc4)nnc3s2)c(Cl)cc1OCc1nn2c(Cc3ccccc3)nnc2s1`, the GI50 is 8.65 µM (inactive) in the assay on SK-MEL-5; 24.1 µM (inactive) with UACC-62; 31.1 µM (inactive) in the assay on UO-31; 19.6 µM in the assay on HCT-15; 37.1 µM (inactive) in the assay with LOX IMVI; 3.43 µM (inactive) in the assay with T47D. The GI50 was 24.7 µM (inactive) in the assay with COLO 205; 30 µM (inactive) in the assay with 786-0; > 100 µM (inactive) with Hs-578T; 20.7 µM (inactive) in the assay with IGROV-1; 30.8 µM (inactive) in the assay with SK-MEL-2; 23.6 µM (inactive) in the assay on CAKI-1. Moreover, the GI50 is 21.8 µM (inactive) in the assay with U-251; 12.8 µM (inactive) in the assay with SF-295; 91 µM (inactive) with SNB-75; > 100 µM (inactive) in the assay with NCI-H226; 55.5 µM (inactive) in the assay on SF-539; 25.1 µM (inactive) in the assay with BT-549. Also, the GI50 in the assay with SW-620 was 43.6 µM (inactive); in the assay with KM12, 26.9 µM (inactive).
